Literature values in patent US11807855B2, “Selection vectors and methods of selecting eukaryotic host cells” (Novartis AG, priority 2013, dated 2023).
One block for each compound: values may come before it.

Columns and labels:
[1] = biological target: A49L mutated folate receptor alpha (Homo sapiens, UniProt P15328, A74L); conditions: A49L mutant
[2] = biological target: wild type folate receptor alpha (Homo sapiens, UniProt P15328)
[3] = biological target: FR alpha and FR beta
[4] = biological target: T1, RFC (Homo sapiens, UniProt P41440)
T1 sequence (P41440 1-591): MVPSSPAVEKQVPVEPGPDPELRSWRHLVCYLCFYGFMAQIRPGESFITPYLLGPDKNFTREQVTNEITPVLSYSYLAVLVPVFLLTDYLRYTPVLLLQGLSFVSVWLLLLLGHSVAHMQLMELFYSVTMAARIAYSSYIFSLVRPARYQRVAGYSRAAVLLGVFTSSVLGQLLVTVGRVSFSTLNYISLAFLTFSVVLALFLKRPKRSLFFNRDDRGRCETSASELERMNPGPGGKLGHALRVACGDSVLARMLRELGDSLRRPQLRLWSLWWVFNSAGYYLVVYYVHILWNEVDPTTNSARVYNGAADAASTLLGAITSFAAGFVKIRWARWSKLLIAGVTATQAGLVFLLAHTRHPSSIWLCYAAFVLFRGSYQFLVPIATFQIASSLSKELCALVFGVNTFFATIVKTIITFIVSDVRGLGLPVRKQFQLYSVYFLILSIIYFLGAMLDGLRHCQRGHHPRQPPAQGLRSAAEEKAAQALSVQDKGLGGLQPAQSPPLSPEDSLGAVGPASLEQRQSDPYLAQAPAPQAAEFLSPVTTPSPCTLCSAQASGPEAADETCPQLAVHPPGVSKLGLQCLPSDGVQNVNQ

Sequence of wild type folate receptor alpha (P15328 25-234): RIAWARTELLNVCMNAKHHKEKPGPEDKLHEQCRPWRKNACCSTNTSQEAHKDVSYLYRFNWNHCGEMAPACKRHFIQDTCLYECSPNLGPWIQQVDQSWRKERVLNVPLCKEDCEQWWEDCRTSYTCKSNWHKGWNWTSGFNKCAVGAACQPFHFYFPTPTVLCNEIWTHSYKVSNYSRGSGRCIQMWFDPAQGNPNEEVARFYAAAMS
Sequence of A49L mutated folate receptor alpha (P15328 25-234 A74L): as the sequence (P15328 25-234) above, with A50L counted along it

SMILES: CN1c2c(nc(N)[nH]c2=O)NCC1CNc1ccc(C(=O)N[C@@H](CCC(=O)O)C(=O)O)cc1 (single isomer, unassigned) [6S diastereoisomer of 5-methyltetrahydrofolate, 5-methyltetrahydrofolate]
IC50 [1]: 179 nM | IC50 [2]: 2.9 nM

SMILES: Nc1nc2c(c(=O)[nH]1)CC(CCc1ccc(C(=O)N[C@@H](CCC(=O)O)C(=O)O)cc1)CN2 (stereo partly shown) [5,10-dideazatetrahydrofolic acid]
Ki ([3]; using [3H]folic acid as a substrate): 0.4 to 1.3 nM

Continued, values first:

Kd [3]: 1 nM
SMILES: C#CCN(c1ccc(C(=O)N[C@@H](CCC(=O)N[C@H](CCC(=O)O)C(=O)O)C(=O)O)cc1)[C@H]1CCc2cc3nc(CO)[nH]c(=O)c3cc21 [BGC945]

Kd [3]: > 100 nM
SMILES: CN(Cc1cnc2nc(N)nc(N)c2n1)c1ccc(C(=O)N[C@@H](CCC(=O)O)C(=O)O)cc1 [MTX, methotrexate]

Km [4]: 200 to 400 µM | Kd [3]: 0.1 to 1 nM
SMILES: Nc1nc2ncc(CNc3ccc(C(=O)N[C@@H](CCC(=O)O)C(=O)O)cc3)nc2c(=O)[nH]1 [folic acid]
